Data taken from patent US8476256B2, “Diazonamide analogs” (Joyant Pharmaceuticals, Inc., priority 2008, dated 2013).

Assays:
[1] = test system: U937 (human leukemic monocyte lymphoma) cell line; assay: Cell viability assay (CELL-TITER-GLO), U937; type: cell-based; details: U-937, U937 cells, 48 hour treatment, 1 nM to 1 μM
Experimental: (§1) Cell viability assays were run using standard protocols known to those of skill in art. Cells were plated in 96 well plates at the density of 3,000-10,000 cells per well. Twenty four hours later, cells were treated with increasing concentration of test compounds (1 nM to 1 μM). After another 48 hour, cell survival was measured using CELL-TITER-GLO® reagent (Promega) following the protocol provided by the manufacture. The IC50 value was determined as the concentration of test compound that kills 50% of the cell population.
(§2) Cell viability data generated according to the protocol described herein was generated for representative compounds in the A2058 (human melanoma) and U937 (human leukemic monocyte lymphoma) cell lines. The compound of Example 16 (“Compound J”) was used as a reference compound.

[2] = test system: A2058 (human melanoma) cell line; assay: Cell viability assay (CELL-TITER-GLO), A2058; type: cell-based; details: A2058 cells, 48 hour treatment, 1 nM to 1 μM
Experimental: as §1, §2

Row | Compound | IC50 [1] [µM] | IC50 [2] [µM]
1 | CC(C)[C@@H]1NC(=O)C(NS(=O)(=O)c2ccccc2)Cc2ccc3c(c2)[C@]24C5=C(N=C1O5)c1ncc(o1)-c1c[nH]c5cccc(c15)-c1cccc2c1NC4O3 (some centres unmarked) [Example 74] | > 1 | 0.429
2 | CC(C)[C@@H]1NC(=O)C(NC(=O)/C=C/C(=O)O)Cc2ccc3c(c2)[C@]24C5=C(N=C1O5)c1ncc(o1)-c1c[nH]c5cccc(c15)-c1cccc2c1NC4O3 (some centres unmarked) [Example 56] | 0.756 | > 1
3 | CC(C)[C@@H]1NC(=O)C(NC(=O)c2ccc(Br)cc2)Cc2ccc3c(c2)[C@]24C5=C(N=C1O5)c1ncc(o1)-c1c[nH]c5cccc(c15)-c1cccc2c1NC4O3 (some centres unmarked) [Example 55] | 0.406 | 0.613
4 | CC(C)[C@@H]1NC(=O)C(NC(=O)C2(O)CCCC2)Cc2ccc3c(c2)[C@]24C5=C(N=C1O5)c1ncc(o1)-c1c[nH]c5cccc(c15)-c1cccc2c1NC4O3 (some centres unmarked) [Example 26] | 0.154 | 0.214
5 | CCCSC(=O)NC1Cc2ccc3c(c2)[C@]24C5=C(N=C(O5)[C@H](C(C)C)NC1=O)c1ncc(o1)-c1c[nH]c5cccc(c15)-c1cccc2c1NC4O3 (some centres unmarked) [Example 72] | 0.543 | 0.6
6 | CC(C)COC(=O)NC1Cc2ccc3c(c2)[C@]24C5=C(N=C(O5)[C@H](C(C)C)NC1=O)c1ncc(o1)-c1c[nH]c5cccc(c15)-c1cccc2c1NC4O3 (some centres unmarked) [Example 69] | 0.272 | 0.541
7 | CCCC(C)C(=O)NC1Cc2ccc3c(c2)[C@]24C5=C(N=C(O5)[C@H](C(C)C)NC1=O)c1ncc(o1)-c1c[nH]c5cccc(c15)-c1cccc2c1NC4O3 (some centres unmarked) [Example 61] | 0.55 | 0.636
8 | CC(C)[C@H](O)C(=O)N[C@H]1Cc2ccc3c(c2)C24C5=C(N=C(O5)[C@H](C(C)C)NC1=O)c1nc(Cl)c(o1)-c1c(Cl)[nH]c5cccc(c15)-c1cc(Cl)cc2c1N[C@H]4O3 (some centres unmarked) [Example 83] | 0.693 | 0.63
9 | CC(C)C[C@H](O)C(=O)NC1Cc2ccc3c(c2)[C@]24C5=C(N=C(O5)[C@H](C(C)C)NC1=O)c1ncc(o1)-c1c[nH]c5cccc(c15)-c1cccc2c1NC4O3 (some centres unmarked) [Example 20] | 0.142 | 0.158
10 | COc1ccc2c3c(c[nH]c13)-c1cnc(o1)-c1nc3oc1C14c5cc(ccc5O[C@@H]1Nc1c-2cccc14)CC(NC(=O)[C@@H](O)C(C)C)C(=O)N[C@H]3C(C)C (some centres unmarked) [Example 78] | 0.051 | 0.042
11 | CCCC(C)(C)C(=O)NC1Cc2ccc3c(c2)[C@]24C5=C(N=C(O5)[C@H](C(C)C)NC1=O)c1ncc(o1)-c1c[nH]c5cccc(c15)-c1cccc2c1NC4O3 (some centres unmarked) [Example 41] | 0.22 | 0.397
12 | COC(=O)c1nc2oc1-c1c[nH]c3cccc(c13)-c1cccc3c1N[C@H]1Oc4ccc5cc4C31c1oc(nc1-2)[C@H](C(C)C)NC(=O)C(NC(=O)[C@@H](O)C(C)C)C5 (some centres unmarked) [Example 76] | 0.018 | 0.013
13 | CC(C)[C@@H]1NC(=O)C(NC(=O)c2cccs2)Cc2ccc3c(c2)[C@]24C5=C(N=C1O5)c1ncc(o1)-c1c[nH]c5cccc(c15)-c1cccc2c1NC4O3 (some centres unmarked) [Example 63] | 0.206 | 0.488
14 | CCCC(Br)C(=O)NC1Cc2ccc3c(c2)[C@]24C5=C(N=C(O5)[C@H](C(C)C)NC1=O)c1ncc(o1)-c1c[nH]c5cccc(c15)-c1cccc2c1NC4O3 (some centres unmarked) [Example 47] | 0.323 | 0.546
15 | COC(=O)O[C@H](C(=O)N[C@H]1Cc2ccc3c(c2)C24C5=C(N=C(O5)[C@H](C(C)C)NC1=O)c1ncc(o1)-c1c[nH]c5cccc(c15)-c1cccc2c1N[C@H]4O3)C(C)C (some centres unmarked) [Example 32] | 0.157 | 0.211
16 | CC(C)[C@@H]1NC(=O)C(NC(=O)C2CCCC2)Cc2ccc3c(c2)[C@]24C5=C(N=C1O5)c1ncc(o1)-c1c[nH]c5cccc(c15)-c1cccc2c1NC4O3 (some centres unmarked) [Example 50] | 0.331 | 0.339
17 | CCC(O)(CC)C(=O)N[C@H]1Cc2ccc3c(c2)C24C5=C(N=C(O5)[C@H](C(C)C)NC1=O)c1ncc(o1)-c1c[nH]c5cccc(c15)-c1cc(Br)cc2c1N[C@H]4O3 (some centres unmarked) [Example 87] | > 1 | > 1
18 | CC(C)[C@@H]1NC(=O)C(NC(=O)C(C)(C)O)Cc2ccc3c(c2)[C@]24C5=C(N=C1O5)c1ncc(o1)-c1c[nH]c5cccc(c15)-c1cccc2c1NC4O3 (some centres unmarked) [Example 22] | 0.146 | 0.23
19 | COc1cc(C(=O)NC2Cc3ccc4c(c3)C35C6=C(N=C(O6)[C@H](C(C)C)NC2=O)c2ncc(o2)-c2c[nH]c6cccc(c26)-c2cccc3c2N[C@H]5O4)cc(OC)c1OC (some centres unmarked) [Example 59] | 0.619 | 0.798
20 | CC(C)[C@@H]1NC(=O)C(NC(=O)C2(O)CC2)Cc2ccc3c(c2)[C@]24C5=C(N=C1O5)c1ncc(o1)-c1c[nH]c5cccc(c15)-c1cccc2c1NC4O3 (some centres unmarked) [Example 25] | 0.42 | 0.769

Row | Compound | IC50 [1] [µM] | IC50 [2] [µM]
21 | CC(C)[C@@H]1NC(=O)C(NS(=O)(=O)c2cccs2)Cc2ccc3c(c2)[C@]24C5=C(N=C1O5)c1ncc(o1)-c1c[nH]c5cccc(c15)-c1cccc2c1NC4O3 (some centres unmarked) [Example 75] | > 1 | > 1
22 | CC(C)[C@@H]1NC(=O)C(NC(=O)Cc2cccs2)Cc2ccc3c(c2)[C@]24C5=C(N=C1O5)c1ncc(o1)-c1c[nH]c5cccc(c15)-c1cccc2c1NC4O3 (some centres unmarked) [Example 64] | > 1 | > 1
23 | CC1CC1C(=O)NC1Cc2ccc3c(c2)[C@]24C5=C(N=C(O5)[C@H](C(C)C)NC1=O)c1ncc(o1)-c1c[nH]c5cccc(c15)-c1cccc2c1NC4O3 (some centres unmarked) [Example 49] | 0.245 | 0.443
24 | CC[C@H](C)C(=O)NC1Cc2ccc3c(c2)[C@]24C5=C(N=C(O5)[C@H](C(C)C)NC1=O)c1ncc(o1)-c1c[nH]c5cccc(c15)-c1cccc2c1NC4O3 (some centres unmarked) [Example 39] | 0.555 | 0.707
25 | CC(C)[C@@H]1NC(=O)C(NC(=O)C2(C)CCCCC2)Cc2ccc3c(c2)[C@]24C5=C(N=C1O5)c1ncc(o1)-c1c[nH]c5cccc(c15)-c1cccc2c1NC4O3 (some centres unmarked) [Example 52] | 0.491 | 0.386
26 | CC(C)[C@@H]1NC(=O)C(NS(C)(=O)=O)Cc2ccc3c(c2)C24C5=C(N=C1O5)c1ncc(o1)-c1c[nH]c5cccc(c15)-c1cccc2c1N[C@H]4O3 (some centres unmarked) [Example 73] | 0.067 | 0.14
27 | CC(C)C(Br)C(=O)NC1Cc2ccc3c(c2)[C@]24C5=C(N=C(O5)[C@H](C(C)C)NC1=O)c1ncc(o1)-c1c[nH]c5cccc(c15)-c1cccc2c1NC4O3 (some centres unmarked) [Example 46] | 0.443 | 0.313
28 | CCC(CC)C(=O)NC1Cc2ccc3c(c2)[C@]24C5=C(N=C(O5)[C@H](C(C)C)NC1=O)c1ncc(o1)-c1c[nH]c5cccc(c15)-c1cccc2c1NC4O3 (some centres unmarked) [Example 62] | 0.247 | 0.556
29 | CC(C)OC(=O)NC1Cc2ccc3c(c2)C24C5=C(N=C(O5)[C@H](C(C)C)NC1=O)c1ncc(o1)-c1c[nH]c5cccc(c15)-c1cccc2c1N[C@H]4O3 (some centres unmarked) [Example 68] | 0.214 | 0.451
30 | CCC(O)(CC)C(=O)NC1Cc2ccc3c(c2)C24C5=C(N=C(O5)[C@H](C(C)C)NC1=O)c1nc(Cl)c(o1)-c1c(Cl)[nH]c5cccc(c15)-c1cccc2c1N[C@H]4O3 (some centres unmarked) [Example 90] | 0.302 | 0.375
31 | CCC(O)(CC)C(=O)NC1Cc2ccc3c(c2)C24C5=C(N=C(O5)[C@H](C(C)C)NC1=O)c1nc(Cl)c(o1)-c1c(Cl)[nH]c5cccc(c15)-c1cc(Cl)cc2c1N[C@H]4O3 (some centres unmarked) [Example 91] | > 1 | > 1
32 | CC(C)C1NC(=O)[C@@H](NC(=O)[C@@H]2C[C@@H](O)CN2)Cc2ccc3c(c2)C24C5=C(N=C1O5)c1ncc(o1)-c1c[nH]c5cccc(c15)-c1cccc2c1N[C@H]4O3 (some centres unmarked) [Example 37] | > 1 | > 1
33 | CC(C)[C@@H]1NC(=O)C(NC(=O)C2CCCCC2)Cc2ccc3c(c2)[C@]24C5=C(N=C1O5)c1ncc(o1)-c1c[nH]c5cccc(c15)-c1cccc2c1NC4O3 (some centres unmarked) [Example 51] | 0.276 | 0.235
34 | CC(C)[C@H](N)C(=O)N[C@H]1Cc2ccc3c(c2)C24C5=C(N=C(O5)[C@H](C(C)C)NC1=O)c1ncc(o1)-c1c[nH]c5cccc(c15)-c1cccc2c1N[C@H]4O3 (some centres unmarked) [Example 33] | 0.572 | 1.44
35 | CC(C)[C@@H]1NC(=O)C(NC(=O)[C@H](C)O)Cc2ccc3c(c2)[C@]24C5=C(N=C1O5)c1ncc(o1)-c1c[nH]c5cccc(c15)-c1cccc2c1NC4O3 (some centres unmarked) [Example 18] | 0.208 | 0.394
36 | CC(C)[C@@H]1NC(=O)C(NC(=O)[C@@H]2CCOC2)Cc2ccc3c(c2)[C@]24C5=C(N=C1O5)c1ncc(o1)-c1c[nH]c5cccc(c15)-c1cccc2c1NC4O3 (some centres unmarked) [Example 54] | 0.078 | 0.081
37 | CC(C)=CCC/C(C)=C/CNC1Cc2ccc3c(c2)C24C5=C(N=C(O5)[C@H](C(C)C)NC1=O)c1ncc(o1)-c1c[nH]c5cccc(c15)-c1cccc2c1N[C@H]4O3 (some centres unmarked) [Example 67] | > 1 | > 1
38 | CO[C@](C(=O)NC1Cc2ccc3c(c2)[C@]24C5=C(N=C(O5)[C@H](C(C)C)NC1=O)c1ncc(o1)-c1c[nH]c5cccc(c15)-c1cccc2c1NC4O3)(c1ccccc1)C(F)(F)F (some centres unmarked) [Example 58] | 0.821 | > 1
39 | CC(C)[C@@H]1NC(=O)[C@@H](NC(=O)[C@@H](O)c2ccccc2)Cc2ccc3c(c2)C24C5=C(N=C1O5)c1ncc(o1)-c1c[nH]c5cccc(c15)-c1cccc2c1N[C@H]4O3 (some centres unmarked) [Example 17] | 0.465 | 0.63
40 | CC(C)=CC(=O)NC1Cc2ccc3c(c2)[C@]24C5=C(N=C(O5)[C@H](C(C)C)NC1=O)c1ncc(o1)-c1c[nH]c5cccc(c15)-c1cccc2c1NC4O3 (some centres unmarked) [Example 42] | 0.221 | 0.409
